# Assay results published in patent publication US20140038181A1, “CHEMICALLY SUBSTITUTED THERMOSENSITIVE PROBES AND COFACTORS FOR HOT START LIGATION” (TRILINK BIOTECHNOLOGIES, priority 2011, published 2014).
# Experiment: Thermal conversion of 2′,3′-substituted ATP to unsubstituted ATP in ligase buffer at 95° C. (HPLC)
# Type: physicochemical
# Settings: for Concentration of unsubstituted ATP: 1 mM 2′,3′-substituted ATP
# Protocol: The reactions were monitored by analysis of the aliquot of incubated mixture by reverse-phase and anion-exchange HPLC.
smiles,measurement,setting,value
"CC(C)(C)OCCO[C@@H]1[C@H](OCCOC(C)(C)C)[C@@H](COP(=O)(O)OP(=O)(O)OP(=O)(O)O)O[C@H]1n1cnc2c(N)ncnc21 [2′,3′-TBE-substituted ATP, 2′,3′-O-bis-[2-(tert-butoxy)]ethyl-adenosine-5′-triphosphate]",Concentration of unsubstituted ATP,"ligase buffer pH 7.5, 5 min",569 µM
same,Concentration of unsubstituted ATP,"ligase buffer pH 7.5, 10 min",857 µM
same,Concentration of unsubstituted ATP,"ligase buffer pH 7.5, 20 min",970 µM
same,cofactor molecules converted to the unmodified ATP,"2 min, ligation buffer",about 20%
same,conversion to unmodified ATP,"20 min, ligation buffer",more than 85%
